Experiments:
Assay in all cases: relative viability (nuclei count vs DMSO), 5 days (fraction); higher = more cells survive
[1] = compound: N=C1NC(=O)/C(=C/c2ccc(O)cc2)S1 [Mirin] + O=C(CCCCCCC(=O)Nc1ccccc1)NO [Vorinostat] (partner 1 µM)
Procedure, shortened: (§1)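 Relative viability divides the nuclei count in treated wells by that in vehicle wells. Lung cancer cell lines were seeded in 1536-well plates, dosed by pin tool the next day, and fixed and stained after 5 days in one step with final 0.05% Triton X-100, 1% formaldehyde and 1 ug/ml Hoechst. Dosing was a single drug or a fixed anchor-drug dose plus five library-drug doses (not always all listed) in √10 steps, and values are medians of duplicate plates imaged at 4×.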

[2] = compound: CCC1=CN=CN=C1N2CCN(CC2)CC3=NC4=C(N3)C=C(C=C4)C(F)(F)F + COc1cc2c(Oc3ccc(NC(=O)C4(C(=O)Nc5ccc(F)cc5)CC4)cc3F)ccnc2cc1OCCCN1CCOCC1 [Foretinib] (partner 0.25 µM)
Procedure, shortened: as §1

[3] = compound: CCC1=CN=CN=C1N2CCN(CC2)CC3=NC4=C(N3)C=C(C=C4)C(F)(F)F + CC(C)C[C@H](NC(=O)[C@H](Cc1ccccc1)NC(=O)c1cnccn1)B(O)O [Bortezomib] (partner 0.002 µM)
Procedure, shortened: as §1

[4] = compound: CCn1c(-c2nonc2N)nc2cnc(Oc3cccc(NC(=O)c4ccc(OCCN5CCOCC5)cc4)c3)cc21 + Cc1cc(Nc2cc(N3CCN(C)CC3)nc(Sc3ccc(NC(=O)C4CC4)cc3)n2)n[nH]1 [Tozasertib] (partner 0.1 µM)
Procedure, shortened: as §1

Cell Line: ChaGo-K-1
- relative viability ([1]; first compound 0.25 µM): 0.741
- relative viability ([1]; first compound 0.7906 µM): 0.652
- relative viability ([1]; first compound 2.5 µM): 0.746
- relative viability ([1]; first compound 7.906 µM): 0.638
- relative viability ([1]; first compound 25 µM): 0.596
- relative viability ([2]; first compound 0.04 µM): 1.02
- relative viability ([2]; first compound 0.1265 µM): 0.992
- relative viability ([2]; first compound 0.4 µM): 0.794
- relative viability ([2]; first compound 1.265 µM): 0.814
- relative viability ([2]; first compound 4 µM): 0.891
- relative viability ([3]; first compound 0.1265 µM): 0.97
- relative viability ([3]; first compound 0.4 µM): 0.964
- relative viability ([3]; first compound 1.265 µM): 1.09
- relative viability ([3]; first compound 4 µM): 0.985
- relative viability ([4]; first compound 0.04 µM): 0.242
- relative viability ([4]; first compound 0.1265 µM): 0.244
- relative viability ([4]; first compound 0.4 µM): 0.232
- relative viability ([4]; first compound 1.265 µM): 0.211
- relative viability ([4]; first compound 4 µM): 0.165

Cell Line: EBC-1
- relative viability ([2]; first compound 0.04 µM): 0.107
- relative viability ([2]; first compound 0.1265 µM): 0.0909
- relative viability ([2]; first compound 0.4 µM): 0.0948
- relative viability ([2]; first compound 1.265 µM): 0.0919
- relative viability ([2]; first compound 4 µM): 0.112
- relative viability ([3]; first compound 0.04 µM): 0.557
- relative viability ([3]; first compound 0.1265 µM): 0.528
- relative viability ([3]; first compound 0.4 µM): 0.6
- relative viability ([3]; first compound 1.265 µM): 0.458
- relative viability ([3]; first compound 4 µM): 0.486

Cell Line: EKVX
- relative viability ([1]; first compound 0.25 µM): 0.784
- relative viability ([1]; first compound 2.5 µM): 0.785
- relative viability ([1]; first compound 7.906 µM): 0.935
- relative viability ([1]; first compound 25 µM): 0.799
- relative viability ([2]; first compound 0.04 µM): 0.748
- relative viability ([2]; first compound 0.1265 µM): 0.675
- relative viability ([2]; first compound 0.4 µM): 0.753
- relative viability ([2]; first compound 4 µM): 0.779
- relative viability ([3]; first compound 0.04 µM): 0.994
- relative viability ([3]; first compound 0.1265 µM): 0.945
- relative viability ([3]; first compound 0.4 µM): 0.983
- relative viability ([3]; first compound 1.265 µM): 0.952
- relative viability ([3]; first compound 4 µM): 1.13
- relative viability ([4]; first compound 0.04 µM): 0.423
- relative viability ([4]; first compound 0.1265 µM): 0.473
- relative viability ([4]; first compound 0.4 µM): 0.46
- relative viability ([4]; first compound 1.265 µM): 0.216
- relative viability ([4]; first compound 4 µM): 0.265

Cell Line: EMC-BAC-2
- relative viability ([1]; first compound 0.25 µM): 0.426
- relative viability ([1]; first compound 0.7906 µM): 0.402
- relative viability ([1]; first compound 2.5 µM): 0.493
- relative viability ([1]; first compound 7.906 µM): 0.35
- relative viability ([1]; first compound 25 µM): 0.6
- relative viability ([2]; first compound 0.04 µM): 1
- relative viability ([2]; first compound 0.1265 µM): 0.943
- relative viability ([2]; first compound 0.4 µM): 1.03
- relative viability ([2]; first compound 4 µM): 0.914
- relative viability ([3]; first compound 0.04 µM): 1.07
- relative viability ([3]; first compound 0.1265 µM): 1.01
- relative viability ([3]; first compound 0.4 µM): 1.05
- relative viability ([3]; first compound 1.265 µM): 0.917
- relative viability ([3]; first compound 4 µM): 1.15
- relative viability ([4]; first compound 0.04 µM): 0.231
- relative viability ([4]; first compound 0.1265 µM): 0.283
- relative viability ([4]; first compound 0.4 µM): 0.249
- relative viability ([4]; first compound 1.265 µM): 0.165
- relative viability ([4]; first compound 4 µM): 0.155

Cell Line: EPLC-272H
- relative viability ([1]; first compound 0.25 µM): 0.415
- relative viability ([1]; first compound 0.7906 µM): 0.549
- relative viability ([1]; first compound 2.5 µM): 0.487
- relative viability ([1]; first compound 7.906 µM): 0.349
- relative viability ([1]; first compound 25 µM): 0.192
- relative viability ([2]; first compound 0.04 µM): 0.787
- relative viability ([2]; first compound 0.1265 µM): 0.787
- relative viability ([2]; first compound 0.4 µM): 0.688
- relative viability ([2]; first compound 1.265 µM): 0.653
- relative viability ([2]; first compound 4 µM): 0.639
- relative viability ([3]; first compound 0.04 µM): 0.696
- relative viability ([3]; first compound 0.1265 µM): 0.885
- relative viability ([3]; first compound 0.4 µM): 0.829
- relative viability ([3]; first compound 1.265 µM): 1.43
- relative viability ([3]; first compound 4 µM): 1.08
- relative viability ([4]; first compound 0.04 µM): 0.152
- relative viability ([4]; first compound 0.1265 µM): 0.394
- relative viability ([4]; first compound 0.4 µM): 0.26
- relative viability ([4]; first compound 1.265 µM): 0.306
- relative viability ([4]; first compound 4 µM): 0.223

Cell Line: H3255
- relative viability ([1]; first compound 0.25 µM): 0.547
- relative viability ([1]; first compound 0.7906 µM): 0.678
- relative viability ([1]; first compound 2.5 µM): 0.846
- relative viability ([1]; first compound 7.906 µM): 0.789
- relative viability ([1]; first compound 25 µM): 0.814
- relative viability ([2]; first compound 0.04 µM): 0.828
- relative viability ([2]; first compound 0.1265 µM): 0.872
- relative viability ([2]; first compound 0.4 µM): 0.894
- relative viability ([2]; first compound 1.265 µM): 0.739
- relative viability ([2]; first compound 4 µM): 0.776
- relative viability ([3]; first compound 0.04 µM): 0.671
- relative viability ([3]; first compound 0.1265 µM): 0.849
- relative viability ([3]; first compound 0.4 µM): 0.739
- relative viability ([3]; first compound 1.265 µM): 0.816
- relative viability ([3]; first compound 4 µM): 0.756
- relative viability ([4]; first compound 0.04 µM): 0.758
- relative viability ([4]; first compound 0.1265 µM): 0.5
- relative viability ([4]; first compound 0.4 µM): 0.706
- relative viability ([4]; first compound 1.265 µM): 0.377
- relative viability ([4]; first compound 4 µM): 0.325

Cell Line: HARA
- relative viability ([1]; first compound 0.25 µM): 0.537
- relative viability ([1]; first compound 0.7906 µM): 0.533
- relative viability ([1]; first compound 2.5 µM): 0.567
- relative viability ([1]; first compound 7.906 µM): 0.597
- relative viability ([1]; first compound 25 µM): 0.502
- relative viability ([2]; first compound 0.04 µM): 0.85
- relative viability ([2]; first compound 0.1265 µM): 0.952
- relative viability ([2]; first compound 0.4 µM): 0.836
- relative viability ([2]; first compound 4 µM): 0.828
- relative viability ([3]; first compound 0.04 µM): 1.12
- relative viability ([3]; first compound 0.1265 µM): 1.05
- relative viability ([3]; first compound 0.4 µM): 1.06
- relative viability ([3]; first compound 1.265 µM): 1.01
- relative viability ([3]; first compound 4 µM): 0.964
- relative viability ([4]; first compound 0.04 µM): 0.11
- relative viability ([4]; first compound 0.1265 µM): 0.0979
- relative viability ([4]; first compound 0.4 µM): 0.093
- relative viability ([4]; first compound 1.265 µM): 0.13
- relative viability ([4]; first compound 4 µM): 0.0876

Cell Line: HCC-15
- relative viability ([1]; first compound 0.25 µM): 0.902
- relative viability ([1]; first compound 0.7906 µM): 0.955
- relative viability ([1]; first compound 2.5 µM): 0.915
- relative viability ([1]; first compound 7.906 µM): 0.838
- relative viability ([1]; first compound 25 µM): 0.82
- relative viability ([2]; first compound 0.04 µM): 1.02
- relative viability ([2]; first compound 0.1265 µM): 1.01
- relative viability ([2]; first compound 0.4 µM): 1.03
- relative viability ([2]; first compound 1.265 µM): 1
- relative viability ([2]; first compound 4 µM): 1.01
- relative viability ([3]; first compound 0.04 µM): 0.931
- relative viability ([3]; first compound 0.1265 µM): 0.921
- relative viability ([3]; first compound 0.4 µM): 0.953
- relative viability ([3]; first compound 1.265 µM): 1.08
- relative viability ([3]; first compound 4 µM): 1.05
- relative viability ([4]; first compound 0.04 µM): 0.451
- relative viability ([4]; first compound 0.1265 µM): 0.403
- relative viability ([4]; first compound 0.4 µM): 0.417
- relative viability ([4]; first compound 1.265 µM): 0.278
- relative viability ([4]; first compound 4 µM): 0.258

Cell Line: HCC-44
- relative viability ([1]; first compound 0.25 µM): 1.12
- relative viability ([1]; first compound 0.7906 µM): 1.2
- relative viability ([1]; first compound 2.5 µM): 1.05
- relative viability ([1]; first compound 7.906 µM): 1.15
- relative viability ([1]; first compound 25 µM): 1.35
- relative viability ([3]; first compound 0.04 µM): 0.853
- relative viability ([3]; first compound 0.1265 µM): 0.798
- relative viability ([3]; first compound 0.4 µM): 0.854
- relative viability ([3]; first compound 1.265 µM): 0.89
- relative viability ([3]; first compound 4 µM): 0.866
- relative viability ([4]; first compound 0.04 µM): 0.841
- relative viability ([4]; first compound 0.1265 µM): 0.146
- relative viability ([4]; first compound 0.4 µM): 0.373
- relative viability ([4]; first compound 1.265 µM): 0.225
- relative viability ([4]; first compound 4 µM): 0.188
